Reference: patent publication US12077503B2, “Substituted cyclic amides and their use as herbicides” (FMC CORPORATION, priority 2015, dated 2024)

Key:
Assay in all cases: Test C preemergence
Type in all cases: in vivo
[1] = system: velvetleaf (Abutilon theophrasti); conditions: for Plant response rating, Velvetleaf: scale 0 to 100, 0 no effect, 100 complete control
How it was run: (§1)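 Herbicidal effect, applied preemergence to sown seeds or postemergence to 1- to 4-leaf plants, was scored visually 13 to 15 d after application, 0 to 100 versus controls.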

corn (Zea mays) = conditions: for Plant response rating, Corn: scale 0 to 100, 0 no effect, 100 complete control
How it was run: as §1

[2] = system: ragweed (common ragweed, Ambrosia elatior); conditions: for Plant response rating, Ragweed: scale 0 to 100, 0 no effect, 100 complete control
How it was run: as §1

[3] = system: morningglory (Ipomoea coccinea); conditions: for Plant response rating, Morningglory: scale 0 to 100, 0 no effect, 100 complete control
How it was run: as §1

[4] = system: crabgrass, large (large crabgrass, Digitaria sanguinalis); conditions: for Plant response rating, Crabgrass, Large: scale 0 to 100, 0 no effect, 100 complete control
How it was run: as §1

[5] = system: Galium (catchweed bedstraw, Galium aparine); conditions: for Plant response rating, Galium: scale 0 to 100, 0 no effect, 100 complete control
How it was run: as §1

[6] = system: waterhemp (common waterhemp, Amaranthus rudis); conditions: for Plant response rating, Waterhemp: scale 0 to 100, 0 no effect, 100 complete control
How it was run: as §1

[7] = system: pigweed (Amaranthus retroflexus); conditions: for Plant response rating, Pigweed: scale 0 to 100, 0 no effect, 100 complete control
How it was run: as §1

[8] = system: oilseed rape (Brassica napus); conditions: for Plant response rating, Oilseed Rape: scale 0 to 100, 0 no effect, 100 complete control
How it was run: as §1

[9] = system: nutsedge, yellow (yellow nutsedge, Cyperus esculentus); conditions: for Plant response rating, Nutsedge, Yellow: scale 0 to 100, 0 no effect, 100 complete control
How it was run: as §1

[10] = system: wheat (winter wheat, Triticum aestivum); conditions: for Plant response rating, Wheat: scale 0 to 100, 0 no effect, 100 complete control
How it was run: as §1

[11] = system: barnyardgrass (Echinochloa crus-galli); conditions: for Plant response rating, Barnyardgrass: scale 0 to 100, 0 no effect, 100 complete control
How it was run: as §1

soybean (Glycine max) = conditions: for Plant response rating, Soybean: scale 0 to 100, 0 no effect, 100 complete control
How it was run: as §1

[12] = system: blackgrass (Alopecurus myosuroides); conditions: for Plant response rating, Blackgrass: scale 0 to 100, 0 no effect, 100 complete control
How it was run: as §1

[13] = system: foxtail, giant (giant foxtail, Setaria faberii); conditions: for Plant response rating, Foxtail, Giant: scale 0 to 100, 0 no effect, 100 complete control
How it was run: as §1

[14] = system: johnsongrass (Sorghum halepense); conditions: for Plant response rating, Johnsongrass: scale 0 to 100, 0 no effect, 100 complete control
How it was run: as §1

[15] = system: ryegrass, Italian (Italian ryegrass, Lolium multiflorum); conditions: for Plant response rating, Ryegrass, Italian: scale 0 to 100, 0 no effect, 100 complete control
How it was run: as §1

[16] = 31 g ai/ha, 0 is no effect, 100 is complete control

Structure (SMILES): Cc1ccc(C2CN(C)C(=O)C2C(=O)Nc2cccc(F)c2F)cc1 (centres unmarked) [Compound 662]
- Plant response rating (scale of 0 to 100), Velvetleaf [1, 16]: 35
- Plant response rating, Velvetleaf ([1]; 62 g ai/ha): 50
- Plant response rating, Velvetleaf ([1]; 125 g ai/ha): 70
- Plant response rating, Velvetleaf ([1]; 250 g ai/ha): 75
- Plant response rating (scale of 0 to 100), Corn (corn (Zea mays); [16]): 55
- Plant response rating, Corn (corn (Zea mays); 62 g ai/ha): 70
- Plant response rating, Corn (corn (Zea mays); 125 g ai/ha): 80
- Plant response rating, Corn (corn (Zea mays); 250 g ai/ha): 85
- Plant response rating (scale of 0 to 100), Ragweed [2, 16]: 70
- Plant response rating, Ragweed ([2]; 62 g ai/ha): 75
- Plant response rating, Ragweed ([2]; 125 g ai/ha): 80
- Plant response rating, Ragweed ([2]; 250 g ai/ha): 85
- Plant response rating (scale of 0 to 100), Morningglory [3, 16]: 0
- Plant response rating, Morningglory ([3]; 62 g ai/ha): 0
- Plant response rating, Morningglory ([3]; 125 g ai/ha): 30
- Plant response rating, Morningglory ([3]; 250 g ai/ha): 25
- Plant response rating (scale of 0 to 100), Crabgrass, Large [4, 16]: 98
- Plant response rating, Crabgrass, Large ([4]; 62 g ai/ha): 98
- Plant response rating, Crabgrass, Large ([4]; 125 g ai/ha): 100
- Plant response rating, Crabgrass, Large ([4]; 250 g ai/ha): 100
- Plant response rating (scale of 0 to 100), Galium [5, 16]: 90
- Plant response rating, Galium ([5]; 62 g ai/ha): 100
- Plant response rating, Galium ([5]; 125 g ai/ha): 100
- Plant response rating, Galium ([5]; 250 g ai/ha): 90
- Plant response rating (scale of 0 to 100), Waterhemp [6, 16]: 60
- Plant response rating, Waterhemp ([6]; 62 g ai/ha): 80
- Plant response rating, Waterhemp ([6]; 125 g ai/ha): 85
- Plant response rating, Waterhemp ([6]; 250 g ai/ha): 90
- Plant response rating (scale of 0 to 100), Pigweed [7, 16]: 70
- Plant response rating, Pigweed ([7]; 62 g ai/ha): 60
- Plant response rating, Pigweed ([7]; 125 g ai/ha): 75
- Plant response rating, Pigweed ([7]; 250 g ai/ha): 80
- Plant response rating (scale of 0 to 100), Oilseed Rape [8, 16]: 70
- Plant response rating, Oilseed Rape ([8]; 62 g ai/ha): 85
- Plant response rating, Oilseed Rape ([8]; 125 g ai/ha): 90
- Plant response rating, Oilseed Rape ([8]; 250 g ai/ha): 90
- Plant response rating (scale of 0 to 100), Nutsedge, Yellow [9, 16]: 0
- Plant response rating, Nutsedge, Yellow ([9]; 62 g ai/ha): 0
- Plant response rating, Nutsedge, Yellow ([9]; 125 g ai/ha): 0
- Plant response rating, Nutsedge, Yellow ([9]; 250 g ai/ha): 0
- Plant response rating (scale of 0 to 100), Wheat [10, 16]: 35
- Plant response rating, Wheat ([10]; 62 g ai/ha): 70
- Plant response rating, Wheat ([10]; 125 g ai/ha): 90
- Plant response rating, Wheat ([10]; 250 g ai/ha): 90
- Plant response rating (scale of 0 to 100), Barnyardgrass [11, 16]: 95
- Plant response rating, Barnyardgrass ([11]; 62 g ai/ha): 98
- Plant response rating, Barnyardgrass ([11]; 125 g ai/ha): 98
- Plant response rating, Barnyardgrass ([11]; 250 g ai/ha): 100
- Plant response rating (scale of 0 to 100), Soybean (soybean (Glycine max); [16]): 0
- Plant response rating, Soybean (soybean (Glycine max); 62 g ai/ha): 0
- Plant response rating, Soybean (soybean (Glycine max); 125 g ai/ha): 0
- Plant response rating, Soybean (soybean (Glycine max); 250 g ai/ha): 0
- Plant response rating (scale of 0 to 100), Blackgrass [12, 16]: 70
- Plant response rating, Blackgrass ([12]; 62 g ai/ha): 75
- Plant response rating, Blackgrass ([12]; 125 g ai/ha): 95
- Plant response rating, Blackgrass ([12]; 250 g ai/ha): 98
- Plant response rating (scale of 0 to 100), Foxtail, Giant [13, 16]: 95
- Plant response rating, Foxtail, Giant ([13]; 62 g ai/ha): 95
- Plant response rating, Foxtail, Giant ([13]; 125 g ai/ha): 95
- Plant response rating, Foxtail, Giant ([13]; 250 g ai/ha): 98
- Plant response rating (scale of 0 to 100), Johnsongrass [14, 16]: 60
- Plant response rating, Johnsongrass ([14]; 62 g ai/ha): 70
- Plant response rating, Johnsongrass ([14]; 125 g ai/ha): 90
- Plant response rating, Johnsongrass ([14]; 250 g ai/ha): 90
- Plant response rating (scale of 0 to 100), Ryegrass, Italian [15, 16]: 50
- Plant response rating, Ryegrass, Italian ([15]; 62 g ai/ha): 70
- Plant response rating, Ryegrass, Italian ([15]; 125 g ai/ha): 80
- Plant response rating, Ryegrass, Italian ([15]; 250 g ai/ha): 95
